# Measured values taken from patent publication US20140128380A1, “METHODS OF MODULATING THE ACTIVITY OF THE MC1 RECEPTOR AND TREATMENT OF CONDITIONS RELATED TO THIS RECEPTOR” (Mimetica Pty Ltd, priority 2009, published 2014).
# pIC50: −log10 of the molar value.
# Biological target: T1, human MC1R (hMC1R) (Homo sapiens, UniProt Q01726)
# T1 construct: purchased Perkin Elmer ES-195-M400UA
# Assay: Human MC1R radioligand binding assay (displacement of 125I-labeled NDP-MSH, Perkin Elmer hMC1R membranes)
# Settings: displacement of [125I]NDP-MSH, compounds tested as trifluoroacetate or hydrochloride salts or free base
# Protocol: Assessments of compound binding to human MC1R (hMC1R)) by displacement of an ^125I-labeled NDP-MSH receptor ligand peptide were performed essentially as described in the data sheets produced by Perkin Elmer to accompany their frozen hMC1R membranes (Perkin Elmer catalog number ES-195-M400UA).
# [^125I] NDP-MSH: radiolabeled in house and purified by HPLC:
# Na ^125I (0.5 mCi, 17.4 Ci/mg) was added to 50 μL sodium phosphate (50 mM, pH 7.4) in an eppendorf tube precoated with IODOGEN. After incubation for 10 mins the phosphate buffer containing the iodine was added to NDP-MSH (10 ul at 1 mg/mL) in a separate eppendorf tube. This was incubated for a further 10 mins. The iodinated NDP-MSH was purified by HPLC on a Zorbax SB 300 column using solvent A: 0.05% TFA and solvent B: 90% acetonitrile 0.045% TFA with a linear gradient, 0-67% B over 60 mins.
# Perkin Elmer frozen hMC1 membranes: catalog number ES-195-M400UA, 0.4 mL/vial; 400 microassays/vial, 0.78 mg/mL protein concentration
# Vials of frozen membranes were thawed rapidly immediately before use, diluted with binding buffer and vortexed. Resuspended membranes were kept on ice until they were added to the wells of the plate.
# Assays were performed in 96 well polypropylene plates. […] This was incubated for 1 hr at 37° C.
# T1 sequence (Q01726 whole entry): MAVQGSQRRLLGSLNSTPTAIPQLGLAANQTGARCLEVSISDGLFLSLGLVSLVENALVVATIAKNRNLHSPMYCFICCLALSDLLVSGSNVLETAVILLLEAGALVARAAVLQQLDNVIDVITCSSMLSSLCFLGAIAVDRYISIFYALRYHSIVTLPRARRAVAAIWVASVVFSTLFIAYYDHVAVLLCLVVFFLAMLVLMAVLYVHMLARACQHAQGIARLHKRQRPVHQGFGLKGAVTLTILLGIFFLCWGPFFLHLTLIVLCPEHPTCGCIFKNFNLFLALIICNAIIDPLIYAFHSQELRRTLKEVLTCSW
row,SMILES,pIC50
1,"Cc1ccc(/C=C/C(=O)NC[C@@H]2CCN(CC(c3ccccc3)c3ccccc3)C(=O)[C@H](CCN)N2)c(C)c1 [Compound 157, (E)-N-(((3S,5S)-3-(2-aminoethyl)-1-(2,2-diphenylethyl)-2-oxo-1,4-diazepan-5-yl)methyl)-3-(2,4-dimethylphenyl)acrylamide]",> 5.00
2,"O=C(/C=C/c1ccc(Cl)cc1)NC[C@@H]1CCN(CC(c2ccccc2)c2ccccc2)C(=O)[C@H](CCN2CCOCC2)N1 [Compound 159, (E)-3-(4-chlorophenyl)-N-(((3S,5S)-1-(2,2-diphenylethyl)-3-(2-morpholinoethyl)-2-oxo-1,4-diazepan-5-yl)methyl)acrylamide]",> 5.00
3,"CC1CCC(C)N1CC[C@@H]1N[C@H](CNC(=O)/C=C/c2ccc(Cl)cc2)CCN(CC(c2ccccc2)c2ccccc2)C1=O (stereo partly drawn) [Compound 160, (E)-3-(4-chlorophenyl)-N-(((3S,5S)-3-(2-(2,5-dimethylpyrrolidin-1-yl)ethyl)-1-(2,2-diphenylethyl)-2-oxo-1,4-diazepan-5-yl)methyl)acrylamide]",> 5.00
4,"O=C(/C=C/c1ccc(Br)cc1)NC[C@@H]1CCN(CC(c2ccccc2)c2ccccc2)C(=O)[C@H](CCN2CCCCC2)N1 [Compound 161, (E)-3-(4-bromophenyl)-N-(((3S,5S)-1-(2,2-diphenylethyl)-2-oxo-3-(2-(piperidin-1-yl)ethyl)-1,4-diazepan-5-yl)methyl)acrylamide]",> 5.00
5,"O=C(NC[C@@H]1CCN(CC(c2ccccc2)c2ccccc2)C(=O)[C@H](CCN2CCCCC2)N1)c1cc(-c2ccc(Cl)cc2)on1 [Compound 162, 5-(4-chlorophenyl)-N-(((3S,5S)-1-(2,2-diphenylethyl)-2-oxo-3-(2-(piperidin-1-yl)ethyl)-1,4-diazepan-5-yl)methyl)isoxazole-3-carboxamide]",> 5.00
6,"CC[C@H](CN1CC[C@@H](CNC(=O)c2ccc3cc(Cl)ccc3c2)N[C@@H](CCCN2CCCCC2)C1=O)c1ccccc1 [Compound 163, 6-chloro-N-(((3S,5S)-2-oxo-1-((S)-2-phenylbutyl)-3-(3-(piperidin-1-yl)propyl)-1,4-diazepan-5-yl)methyl)-2-naphthamide]",> 5.00
7,"CC(C)(NC(=O)/C=C/c1ccc(Cl)cc1)[C@@H]1CCN(CC(c2ccccc2)c2ccccc2)C(=O)[C@H](CCN)N1 [Compound 164, (E)-N-(2-((3S,5S)-3-(2-aminoethyl)-1-(2,2-diphenylethyl)-2-oxo-1,4-diazepan-5-yl)propan-2-yl)-3-(4-chlorophenyl)acrylamide]",> 5.00
8,"CC(C)(NC(=O)/C=C/c1ccc(Cl)cc1)[C@@H]1CCN(CC(c2ccccc2)c2ccccc2)C(=O)[C@H](CCN2CCCCC2)N1 [Compound 165, (E)-3-(4-chlorophenyl)-N-(2-((3S,5S)-1-(2,2-diphenylethyl)-2-oxo-3-(2-(piperidin-1-yl)ethyl)-1,4-diazepan-5-yl)propan-2-yl)acrylamide]",> 5.00
9,"CNC(=O)[C@H](Cc1ccc2ccccc2c1)N1CC[C@H](CNC(=O)[C@@H](N)Cc2ccc(F)cc2)N[C@@H](CCCNC(=N)N)C1=O [Compound 166, (S)-2-amino-3-(4-fluorophenyl)-N-(((3S,5R)-3-(3-guanidinopropyl)-1-((S)-1-(methylamino)-3-(naphthalen-2-yl)-1-oxopropan-2-yl)-2-oxo-1,4-diazepan-5-yl)methyl)propanamide]",> 5.00
10,"CC[C@H](CN1CC[C@H](CNC(=O)c2ccc3cc(Cl)ccc3c2)N[C@H](CC(C)(C)N2CCCCC2)C1=O)c1ccccc1 [Compound 172, 6-chloro-N-(((3R,5R)-3-(2-methyl-2-(piperidin-1-yl)propyl)-2-oxo-1-((S)-2-phenylbutyl)-1,4-diazepan-5-yl)methyl)-2-naphthamide]",> 5.00
11,"CNC(=O)[C@H](Cc1ccc2ccccc2c1)N1CC[C@H](CNC(=O)[C@H](N)Cc2ccc(Cl)cc2)N[C@@H](CCCNC(=N)N)C1=O [Compound 174, (R)-2-amino-3-(4-chlorophenyl)-N-(((3S,5R)-3-(3-guanidinopropyl)-1-((S)-1-(methylamino)-3-(naphthalen-2-yl)-1-oxopropan-2-yl)-2-oxo-1,4-diazepan-5-yl)methyl)propanamide]",> 5.00
12,"CNC(=O)[C@H](Cc1ccc2ccccc2c1)N1CC[C@H](CNC(=O)/C=C/c2ccc(Cl)cc2)N[C@@H](CCCNC(=N)N)C1=O [Compound 175, (E)-3-(4-chlorophenyl)-N-(((3S,5R)-3-(3-guanidinopropyl)-1-((S)-1-(methylamino)-3-(naphthalen-2-yl)-1-oxopropan-2-yl)-2-oxo-1,4-diazepan-5-yl)methyl)acrylamide]",> 5.00
13,"CC[C@H](CN1CC[C@@H](CNC(=O)c2ccc(-c3ccccc3)cc2)N[C@@H](CCN2CCCCC2)C1=O)c1ccccc1 [Compound 177, N-(((3S,5S)-2-oxo-1-((S)-2-phenylbutyl)-3-(2-(piperidin-1-yl)ethyl)-1,4-diazepan-5-yl)methyl)biphenyl-4-carboxamide]",> 5.00
14,"CC[C@H](CN1CC[C@@H](CNC(=O)c2csc(-c3ccccc3)n2)N[C@@H](CCN2CCCCC2)C1=O)c1ccccc1 [Compound 178, N-(((3S,5S)-2-oxo-1-((S)-2-phenylbutyl)-3-(2-(piperidin-1-yl)ethyl)-1,4-diazepan-5-yl)methyl)-2-phenylthiazole-4-carboxamide]",> 5.00
15,"CC[C@H](CN1CC[C@@H](CNC(=O)c2ccccc2-c2ccc(Cl)cc2)N[C@@H](CCN2CCCCC2)C1=O)c1ccccc1 [Compound 179, 4′-chloro-N-(((3S,5S)-2-oxo-1-((S)-2-phenylbutyl)-3-(2-(piperidin-1-yl)ethyl)-1,4-diazepan-5-yl)methyl)biphenyl-2-carboxamide]",> 5.00
16,"CC[C@H](CN1CC[C@@H](CNC(=O)c2ccc3cc(Cl)ccc3c2)N[C@@H](CCN(C(C)=O)C(C)C)C1=O)c1ccccc1 [Compound 180, 6-chloro-N-(((3S,5S)-3-(2-(N-isopropylacetamido)ethyl)-2-oxo-1-((S)-2-phenylbutyl)-1,4-diazepan-5-yl)methyl)-2-naphthamide]",> 5.00
17,"CC[C@@H](CN1CC[C@H](CNC(=O)c2ccc3cc(Cl)ccc3c2)N[C@H](CCN2CCCCC2)C1=O)c1ccccc1 [Compound 182, 6-chloro-N-(((3R,5R)-2-oxo-1-((R)-2-phenylbutyl)-3-(2-(piperidin-1-yl)ethyl)-1,4-diazepan-5-yl)methyl)-2-naphthamide]",> 5.00

# Other lines, results leading:
row,pIC50,SMILES
1,> 5.00,"O=C(/C=C/c1ccc(F)cc1F)NC[C@@H]1CCN(CC(c2ccccc2)c2ccccc2)C(=O)[C@H](CCN2CCCCC2)N1 [Compound 158, (E)-3-(2,4-difluorophenyl)-N-(((3S,5S)-1-(2,2-diphenylethyl)-2-oxo-3-(2-(piperidin-1-yl)ethyl)-1,4-diazepan-5-yl)methyl)acrylamide]"
2,> 5.00,"CNC(=O)[C@H](Cc1ccc2ccccc2c1)N1CC[C@H](CNC(=O)Cc2ccc(Cl)cc2)N[C@@H](CCCNC(=N)N)C1=O [Compound 167, (S)-2-((3S,5R)-5-((2-(4-chlorophenyl)acetamido)methyl)-3-(3-guanidinopropyl)-2-oxo-1,4-diazepan-1-yl)-N-methyl-3-(naphthalen-2-yl)propanamide]"
3,> 5.00,"CNC(=O)[C@H](Cc1ccc2ccccc2c1)N1CC[C@H](CNC(=O)[C@H](N)Cc2ccc(F)cc2)N[C@@H](CCCNC(=N)N)C1=O [Compound 168, (R)-2-amino-3-(4-fluorophenyl)-N-(((3S,5R)-3-(3-guanidinopropyl)-1-((S)-1-(methylamino)-3-(naphthalen-2-yl)-1-oxopropan-2-yl)-2-oxo-1,4-diazepan-5-yl)methyl)propanamide]"
4,> 5.00,"CC[C@H](CN1CC[C@@H](CNC(=O)c2ccc(Cl)c(Cl)c2)N[C@@H](CCN)C1=O)c1ccccc1 [Compound 170, N-(((3S,5S)-3-(2-aminoethyl)-2-oxo-1-((S)-2-phenylbutyl)-1,4-diazepan-5-yl)methyl)-3,4-dichlorobenzamide]"
5,> 6.00,"CC[C@H](CN1CC[C@@H](CNC(=O)c2ccc3cc(Cl)ccc3c2)N[C@@H](CC(C)(C)N2CCCCC2)C1=O)c1ccccc1 [Compound 171, 6-chloro-N-(((3S,5S)-3-(2-methyl-2-(piperidin-1-yl)propyl)-2-oxo-1-((S)-2-phenylbutyl)-1,4-diazepan-5-yl)methyl)-2-naphthamide]"
6,> 5.00,"CNC(=O)[C@H](Cc1ccc2ccccc2c1)N1CC[C@H](CNC(=O)[C@@H](N)Cc2ccc(Cl)cc2)N[C@@H](CCCNC(=N)N)C1=O [Compound 173, (S)-2-amino-3-(4-chlorophenyl)-N-(((3S,5R)-3-(3-guanidinopropyl)-1-((S)-1-(methylamino)-3-(naphthalen-2-yl)-1-oxopropan-2-yl)-2-oxo-1,4-diazepan-5-yl)methyl)propanamide]"
7,> 5.00,"N=C(N)NCCC[C@H]1N[C@@H](CNC(=O)c2ccc(-c3ccccc3)cc2)CCN(CC2CCCCC2)C1=O [Compound 176, N-(((3R,5R)-1-(cyclohexylmethyl)-3-(3-guanidinopropyl)-2-oxo-1,4-diazepan-5-yl)methyl)biphenyl-4-carboxamide]"
8,> 5.00,"O=C(NC[C@@H]1CCN(CC(c2ccccc2)c2ccccc2)C(=O)[C@H](CCN2CCOCC2)N1)c1ccc2cc(Cl)ccc2c1 [Compound 181, 6-chloro-N-(((3S,5S)-1-(2,2-diphenylethyl)-3-(2-morpholinoethyl)-2-oxo-1,4-diazepan-5-yl)methyl)-2-naphthamide]"
